Assay results reported in US12297285B2 (Orna Therapeutics, Inc., priority 2022, dated 2025).

Columns and labels:
Assay in all cases: IRES screening, Gaussia luciferase from LNP-oRNA (Table 27)
Details in all cases: Gaussia luciferase luminescence in supernatant 48 hours after LNP-oRNA transfection, normalized to control (caprine kobuvirus IRES)
[1] = tested on: primary human hepatocytes
[2] = tested on: primary human skeletal myotubes
[3] = tested on: activated primary human T cells

Row | Structure (SMILES) | [Mod] PHH Fold Change [1] | [Mod] Fold Change Myo [2] | [Mod] T Fold Change [3]
1 | CCCCCCCCCCCCC(O)CN(CCCCCCCC(=O)OC(CCCCCCCC)CCCCCCCC)CCCn1ccnc1C (stereo not drawn) [Lipid 10a-150] | 0.5147 Fold Change | 0.03864 Fold Change | 0.02705 Fold Change
2 | CC(C)=CCC/C(C)=C/C(=O)OCCCCCCC(CCCCCCOC(=O)/C=C(\C)CCC=C(C)C)OC(=O)CCCn1ccnc1C (stereo not drawn) [Lipid 10a-121] | 0.9977 Fold Change | 0.6276 Fold Change | 1.029 Fold Change
3 | CCCCC(CC)CCC(=O)OCCCCCCC(CCCCCCOC(=O)CCC(CC)CCCC)OC(=O)CCCn1ccnc1C (stereo not drawn) [Lipid 10a-111] | 0.787 Fold Change | 0.2223 Fold Change | 0.4651 Fold Change
4 | CCCCCCCCC(CCCCCC)C(=O)OCCCCCCN(CCCCCCOC(=O)C(CCCCCC)CCCCCCCC)CCn1ccnc1 (stereo not drawn) [Lipid 10a-129] | 0.6689 Fold Change | 0.05369 Fold Change | 0.08945 Fold Change
5 | Cc1nccn1CCCC(=O)OC(CCCCCCCC(=O)OCCC(C)CCC(C)C)CCCCCCCC(=O)OCCC(C)CCC(C)C (stereo not drawn) [Lipid 10a-103] | 0.6471 Fold Change | 0.04558 Fold Change | 0.03951 Fold Change
6 | Cc1nccn1CCCC(=O)OC(CCCCCCOC(=O)CC(C)CCCC(C)C)CCCCCCOC(=O)CC(C)CCCC(C)C (stereo not drawn) [Lipid 10a-117] | 0.4258 Fold Change | 0.04273 Fold Change | 0.04612 Fold Change
7 | CCCCCCCCCN(CCCCn1ccnc1)C(CCCCCCCCC(=O)OCC(CCCC)CCCCCC)CCCCCCCCC(=O)OCC(CCCC)CCCCCC (stereo not drawn) [Lipid 10a-148] | 0.7368 Fold Change | 0.03913 Fold Change | 0.02909 Fold Change
8 | CCCCCCCCCN(CCCCn1ccnc1C)C(CCCCCCCCC(=O)OCC(CCCC)CCCCCC)CCCCCCCCC(=O)OCC(CCCC)CCCCCC (stereo not drawn) [Lipid 10a-147] | 0.5594 Fold Change | 0.04264 Fold Change | 0.03662 Fold Change
9 | CC(C)CCCC(C)CC(=O)OCCCCCCC(CCCCCCOC(=O)CC(C)CCCC(C)C)OC(=O)CCCn1ccnc1 (stereo not drawn) [Lipid 10a-116] | 0.5299 Fold Change | 0.03921 Fold Change | 0.03074 Fold Change
10 | Cc1nccn1CCCN(CCCCCCCC(=O)OCCC(C)CCC(C)C)CCCCCCCC(=O)OCCC(C)CCC(C)C (stereo not drawn) [Lipid 10a-102] | 0.5141 Fold Change | 0.04469 Fold Change | 0.031 Fold Change
11 | CCCCC(CC)CCC(=O)OCCCCCCN(CCCCCCOC(=O)CCC(CC)CCCC)CCCn1ccnc1C (stereo not drawn) [Lipid 10a-110] | 0.7175 Fold Change | 0.2424 Fold Change | 0.5133 Fold Change
12 | CCCCCCCCCCCCCCN(Cc1nccn1C)C(CCCCCCCCC(=O)OCC(CCCC)CCCCCC)CCCCCCCCC(=O)OCC(CCCC)CCCCCC (stereo not drawn) [Lipid 10a-136] | 0.4286 Fold Change | 0.04786 Fold Change | 0.04232 Fold Change
13 | CCCCC/C=C\C/C=C\CCCCCCCC(=O)OCC(COC(=O)CCC(OCCCCCCCC)OCCCCCCCC)COC(=O)OCCCn1ccnc1C (stereo not drawn) [Lipid 10a-141] | 0.547 Fold Change | 0.04025 Fold Change | 0.03106 Fold Change
14 | CCCCC(C)CCC(=O)OCCCCCCN(CCCCCCOC(=O)CCC(C)CCCC)CCCn1ccnc1C (stereo not drawn) [Lipid 10a-114] | 0.7898 Fold Change | 0.05835 Fold Change | 0.06812 Fold Change
15 | CCCCCCCCC(CC)OC(=O)CCCCCCCN(CCCCCCCC(=O)OC(CCCCCCCC)CCCCCCCC)CCCn1ccnc1C (stereo not drawn) [Lipid 10a-138] | 0.6157 Fold Change | 0.3723 Fold Change | 0.6378 Fold Change
16 | CC(C)=CCCC(C)CC(=O)OCCCCCCC(CCCCCCOC(=O)CC(C)CCC=C(C)C)OC(=O)CCCn1ccnc1 (stereo not drawn) [Lipid 10a-118] | 0.6669 Fold Change | 0.1546 Fold Change | 0.4562 Fold Change
17 | CC(CCOC(=O)CCCCCCCCN(CCCCCCCCC(=O)OCCC(C)CC(C)(C)C)CCCn1ccnc1)CC(C)(C)C (stereo not drawn) [Lipid 10a-104] | 0.7745 Fold Change | 0.07607 Fold Change | 0.1688 Fold Change
18 | CCCCCCCCC(CCCCCC)C(=O)OCCCCCCN(CCCCCCOC(=O)C(CCCCCC)CCCCCCCC)CCn1ccnc1C (stereo not drawn) [Lipid 10a-139] | 0.5206 Fold Change | 0.0597 Fold Change | 0.09732 Fold Change
19 | CCCCC/C=C\C/C=C\CCCCCCCC(=O)OCC(COC(=O)CCC(OCCCCCCCC)OCCCCCCCC)COC(=O)OCCCn1ccnc1 (stereo not drawn) [Lipid 10a-140] | 0.7154 Fold Change | 0.1601 Fold Change | 0.3995 Fold Change
20 | CCCCCCCCC(CCCCCC)C(=O)OCCCCCCN(CCCCCCOC(=O)C(CCCCCC)CCCCCCCC)CCC(C)n1ccnc1 (stereo not drawn) [Lipid 10a-130] | 0.5728 Fold Change | 0.04058 Fold Change | 0.06076 Fold Change
21 | CC(C)=CCCC(C)CC(=O)OCCCCCCN(CCCCCCOC(=O)CC(C)CCC=C(C)C)CCCn1ccnc1C (stereo not drawn) [Lipid 10a-125] | 0.6492 Fold Change | 0.3827 Fold Change | 0.6418 Fold Change
22 | CCCCCCCCC(CCCCCC)C(=O)OCCCCCCN(CCCCCCOC(=O)C(CCCCCC)CCCCCCCC)Cc1nccn1C (stereo not drawn) [Lipid 10a-128] | 1.021 Fold Change | 0.4893 Fold Change | 0.5837 Fold Change
